This passage reports IC50 results from patent publication US8080660B2, “Metal complex glycogen synthase kinase 3 inhibitors” (The Trustees Of The University Of Pennsylvania, priority 2004, dated 2011).

The assay addresses T1, GSK-3α (Homo sapiens, UniProt P49840).
T1 construct: purchased Upstate Biotechnology USA
Put plainly: GSK-3α kinase inhibition assay ([γ-32P]ATP phosphorylation of substrate). Format: biochemical. The settings on record: 20 μM ATP.

T1 sequence (P49840 whole entry): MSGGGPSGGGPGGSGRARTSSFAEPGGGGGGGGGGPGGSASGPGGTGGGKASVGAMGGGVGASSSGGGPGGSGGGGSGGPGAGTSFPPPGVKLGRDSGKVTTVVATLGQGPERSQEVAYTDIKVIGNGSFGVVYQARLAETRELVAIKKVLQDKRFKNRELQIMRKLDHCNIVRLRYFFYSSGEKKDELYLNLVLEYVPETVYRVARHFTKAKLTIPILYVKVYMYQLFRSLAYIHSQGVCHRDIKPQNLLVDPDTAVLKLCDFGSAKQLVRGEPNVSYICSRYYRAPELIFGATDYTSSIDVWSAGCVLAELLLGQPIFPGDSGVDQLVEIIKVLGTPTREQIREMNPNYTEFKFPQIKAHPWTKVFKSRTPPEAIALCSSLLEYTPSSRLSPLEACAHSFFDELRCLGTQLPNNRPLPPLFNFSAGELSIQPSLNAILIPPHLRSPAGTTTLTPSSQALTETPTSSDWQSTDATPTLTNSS
Description: Protein kinases and substrates were purchased from Upstate Biotechnology USA, except for poly(Glu-Tyr 4:1) which was obtained from Sigma-Aldrich.
After 15 mins, the reaction was initiated by adding ATP to a final concentration of 20 μM, including approximately 0.04 μCi/μl [γ-^32P]ATP. Reactions were performed in a total volume of 25 μl. After 30 min, the reaction was terminated by spotting 17.5 μl on a circular P81 phosphocellulose paper (diameter 2.1 cm, Whatman) followed by washing four times (five minutes each wash) with 0.75% phosphoric acid and once with acetone. The dried P81 papers were transferred to a scintillation vial and 5 ml of scintillation cocktail were added and the counts per minute (CPM) determined with a Beckmann 6000 scintillation counter.

As to `O=C1NC(=O)c2c1c1cccnc1c1[nH]c3ccccc3c21` [Compound 4], the IC50 was 50 µM.

In general, IC50 refers to the concentration that inhibits the measured activity by half.
